pIC50: −log10 of the molar value. Entries after “also recorded” stand apart in the source; their conditions may differ.
Legend:
p38 MAPK = conditions: LPS-induced TNF-alpha production, human monocytes; published source; read-out: Cellular IC50; cited from earlier work
[1] = system: cerebellar granule neurons (CGNs); assay: serum deprivation/KCl reduction degeneration of cerebellar granule neurons; type: cell-based, mouse; conditions: 5 μM; 5 mM KCl, 24 hours
[2] = system: DRG neurons (axon vs. cell body compartment); assay: Campenot chamber local axon degeneration (anti-NGF in axon compartment); type: cell-based, mouse
Protocol: Teflon dividers (Tyler Research) were cleaned by washing in water and wiping them clean of any residual grease. Dividers were then soaked in Nochromix (Godax Laboratories)/sulfuric acid overnight, rinsed five times in distilled and autoclaved water (SQ water), boiled for 30 minutes, and then air-dried before use
Mouse laminin (5 μg/ml in sterile filtered water; Invitrogen) was added to PDL coated 35 mm dishes (BD Biosciences) and they were incubated for 1 hour at 37° C., followed by two rinses in SQ water. The dishes were vacuum-dried and then air-dried in a laminar flow hood for 15 minutes. Prepared dishes were then scored with a pin rake (Tyler Research). […] High vacuum grease (VWR) was added to each Teflon divider under a dissection scope. The laminin coated PDL dishes were inverted and dropped onto the Teflon divider, with additional pressure added by use of a toothpick in the non-track-containing regions. Dishes were incubated for 1 hour at 37° C. Five hundred microliters of NBM+MC (50 ng/ml NGF) solution was added to each of the side compartments, and a grease barrier was added in front of the center cell slot.
Free E13.5 spinal cords were dissected from mouse embryos and placed into NBM+MC (25 ng/ml NGF) solution. DRGs were detached from the spinal cord with a tungsten needle. An NBM+MC-lubricated P200 pipette was used to move DRGs into a 1.5 ml tube. DRGs were pelleted with a tabletop centrifuge for 30 seconds. The supernate was discarded and 0.05% Trypsin/EDTA (cold) was added. The pellet was resolubilized with a pipette and incubated at 37° C. for 15 minutes with constant agitation (650 RPM). The sample was again centrifuged and the supernate discarded. The pellet was resuspended in warm NBM+MC (50 ng/ml NGF) solution and triturated with a flamed glass pipette 20 times, followed by trituration with a fire-bored glass pipette another 20 times. The samples were again centrifuged and the resulting pellets were resuspended in 0.5 ml NBM+MC (50 ng/ml NGF) solution. The cells were diluted to a final concentration of 2.5×10^6 cells/ml. The cell suspensions were loaded into a 1 ml syringe with a 22 gauge needle. The center slot of the Campenot divider was filled using the syringe (to a volume of at least 50 μl). The Campenot chamber was incubated overnight at 37° C. 2.5 ml NGF+MC (50 ng/ml NGF) solution was added to the center compartment and the grease gate was removed. The outer medium (cell body compartment) was replaced after three days with 2.5 ml NBM+MC medium (with 25 ng/ml NGF). After five days in culture, one distal compartment was washed three times with warmed NBM+MC (no NGF) solution. After the third wash, 500 μl NBM+MC (no NGF) solution was added to the axon compartment in combination with either 0.5% DMSO or an inhibitor. The cell body compartment was replaced with 2.5 ml NBM+MC medium (with 25 ng/ml NGF) containing either 0.5% DMSO or inhibitor.
After 28 hours of anti-NGF antibody treatment, 8% PFA/30% sucrose solution (see above) was added directly to the culture medium at a 1:1 dilution and incubated for 30 minutes. The Teflon divider was removed after the first 15 minutes of addition. The system was washed once with 2.5 ml PBS prior to immunostaining. Neurons were blocked in 5% BSA/0.2% triton in PBS for 30 minutes. The primary antibody Tuj1 (Covance) was added to a final dilution of 1:1000 in PBS containing 2% BSA and incubated overnight at 4° C. The dish was washed once with PBS. […] The dish was washed twice with PBS, and a 22×22 mm coverslip (VWR) was added with 350 μl of fluoromount G (Electron Microscopy Sciences). The neurons were visualized by use of a fluorescence microscope.
As described above, E13.5 DRGs were isolated and grown for 5 days in a Campenot chamber.

DRGs = assay: anti-NGF antibody (NGF withdrawal) screen for inhibitors of axon degeneration in DRG explants; type: cell-based, mouse; conditions: inhibitor 100 μM or 10 μM added 1 hour before 25 μg/ml anti-NGF; 20 hours; actin stain
Protocol: The anti-NGF antibody model described above in Example 1 was used in a screen for inhibitors of neuron or axon degeneration. A library of more than 400 small molecules (Tocris Bioscience) was tested to see which, if any, modulate degeneration observed in the presence of anti-NGF antibodies.
Mouse E13.5 embryos were dissected and placed into L15 medium (Invitrogen). The spinal cord was dissected out from the embryos with DRGs attached. The spinal cords with DRGs attached were placed into L15 medium+5% goat serum (Gibco) on ice. The DRGs were removed using a tungsten needle and the remaining spinal cord was disposed of. Eight well slides were filled with N3-F12 solution (23 ml Ham's F12, 1 ml N3 supplement, and 1 ml 1 M glucose) to which was added 25 ng/ml NGF (Roche). (N3 supplement was made by dilution of N3 100× concentrate, which was made by mixing the following ingredients, in the following order: 5.0 ml Hank's buffered saline solution (HBSS; Ca, Mg free; Invitrogen), 1.0 ml bovine serum albumin (10 mg/ml in HBSS=150 μm), 2.0 ml Transferrin (T1147-1G, human, 100 mg/ml in HBSS=1.1 mM), 1.0 ml sodium selenite (S9133-1MG, 0.01 mg/ml in HBSS 58 μM), 0.4 ml putrescine dihydrochloride (P5780-5G, 80 mg/ml in HBSS=500 mM), 0.2 ml progesterone (P8783-5G, 0.125 mg/ml in absolute ethanol=400 μM), 0.02 ml corticosterone (C2505-500MG, 2 mg/ml in absolute ethanol=5.8 mM), 0.1 ml triiodothyonine, sodium salt (T6397-100MG, 0.2 mg/ml in 0.01 N NaOH=300 μM), 0.4 ml insulin (16634-250MG, bovine pancreas, 241 U/mg, 25 mg/ml in 20 mM HCl=4.4 mM), for a total volume of 10.02 ml (can be stored at −20° C.). An N3 supplement stock was made by combining the following: 10 ml Pen/Strep (100×, Gibco), 10 ml glutamine (200 mM, Gibco), 10 ml MEM vitamins (100×, Gibco), 10 ml N3 concentrate (100×, see above), for a total volume of 40 ml. The mixture was filter sterilized using a 0.22 μm filter, and 1-2 ml aliquots were stored at −20° C.).
The DRGs were sectioned into halves and placed in the center of each well of an 8-chamber slide (BD Biocoat PDL/Laminin coated glass, Becton Dickinson). The DRGs were permitted to attach to the slide at room temperature for 5-10 minutes, followed by an overnight incubation at 37° C. Inhibitors of choice were added at a concentration of 100 μM (top row) or 10 μM (bottom row) 1 hour before adding anti NGF antibodies. The anti-NGF antibodies were added to the right half of the slide (4 wells) at a concentration of 25 μg/ml. After incubation for 20 hours at 37° C., the slides were fixed with 30% sucrose/8% paraformaldehyde (PFA) by adding 250 μl of the fix solution directly to the 250 μl of culture medium. (To make the 30% sucrose/8% PFA solution, the following ingredients were added to a 600 ml beaker including a stir bar: 250 ml 16% PFA (cat#15710-S, Electron Microscopy Sciences), 50 ml 10×PBS pH 7.4, and 150 g sucrose. The solution was mixed under low heat until dissolved, and then 6-8 drops of 1 M NaOH were added to bring the pH to 7.4. The volume was then brought to 500 ml with water in a graduated cylinder. The solution was mixed well, placed in aliquots, and frozen.) The s ides were fixed for 30 minutes, followed by washing once with PBS. All cells were labeled with an actin stain (Alexa-568 conjugated phalloidin; 1:40; Invitrogen), a membrane dye (DiO; 1:200; Invitrogen), and a DNA stain (Hoechst 33258; 1:10,000; Invitrogen) in 0.1% Triton and 1% goat serum for 2 hours at room temperature. […]

CaMKK = CaMKK activity after ionomycin stimulation, transfected HeLa cells; published source; read-out: Cellular IC50; cited from earlier work

| SMILES | pIC50 (p38 MAPK) | protection of cerebellar granule neurons from serum deprivation/KCl reduction [1] | formation of varicosities in locally NGF-deprived axons ([2]; 30 μM SB415, 15 μM Act D in cell body compartment, 10 μM AG555, 30 μM SB239 in axon compartment) | Axon Compartment (protection of NGF-deprived axons) ([2]; inhibitor 5 μM in axon compartment) | Cell Body Compartment (protection of NGF-deprived axons) ([2]; inhibitor 5 μM in cell body compartment) | Axon Compartment (protection of NGF-deprived axons) ([2]; inhibitor 30 μM in axon compartment, anti-NGF on axons 28 hours, number in parentheses not explained) | Axon Compartment (protection of NGF-deprived axons) ([2]; inhibitor 30 μM in axon compartment, anti-NGF on axons 28 hours, number in parentheses not explained, listed as SB239) | Cell Body Compartment (protection of NGF-deprived axons) ([2]; inhibitor 30 μM in cell body compartment, anti-NGF on axons 28 hours, number in parentheses not explained) | Cell Body Compartment (protection of NGF-deprived axons) ([2]; inhibitor 30 μM in cell body compartment, anti-NGF on axons 28 hours, number in parentheses not explained, listed as SB239) | Comments (observations on compounds found to protect against neurodegeneration) (DRGs) | Axon Compartment (protection of NGF-deprived axons) ([2]; inhibitor 15 μM in axon compartment) | Cell Body Compartment (protection of NGF-deprived axons) ([2]; inhibitor 15 μM in cell body compartment) | pIC50 (CaMKK) |
| --- | --- | --- | --- | --- | --- | --- | --- | --- | --- | --- | --- | --- | --- |
| COc1nccc(-c2c(-c3ccc(F)cc3)ncn2C2CCC(O)CC2)n1 (centres unmarked) [SB239063] | 6.46 | protect | fewer varicosities | Yes (1) | No (1) | Yes (3) | did not degenerate; also recorded: protected from local degeneration | No (3) | failed to prevent degeneration | – | – | – | – |
| O=C(O)c1ccc2c3c1cccc3c(=O)n1c3ccccc3nc21 [STO-609] | – | protect | – | – | – | – | – | – | – | Partial | Yes (1) | No (1) | 5.52 |
